Here are results for 99 compounds from ChEMBL document CHEMBL3507680, “University of Dundee, Gates Library screen for HepG2 cell viability”.

This series in a line: Human HepG2 cell viability assay in 384 well format. Also noted: dose 125 nL, time 70.5 hour; concentration not given beside the values. It is filed as toxicity, cell-based. The following applies: HepG2 cells, read-out: Inhibition.
For `CN(CCNC(=O)N1CCN(Cc2ccon2)CC1)c1ccccc1`, the cytotoxicity at 70.5 h is -5.16%.
Consider `O=C(c1cccs1)N1CCC2(CC1)CC(Oc1ccccc1)CO2` (centres undefined), for which the cytotoxicity at 70.5 h was -10.8%.
On to `CS(=O)(=O)N1CCCCCC1C1CCN(c2ncccc2C#N)CC1` (centres undefined), for which the cytotoxicity at 70.5 h is -0.285%.
As to `CCC(=O)N1CCCC1c1csc(Nc2cnccn2)n1` (centres undefined), the cytotoxicity at 70.5 h was -9.64%.
The same measure for `Cc1ccc(C2COCCN2C(=O)c2cccc(N(C)C)c2)o1` (centres undefined): -7.51%; for `CC(C)C(=O)N1CCCC2(CCCN2Cc2cccnc2)C1` (centres undefined): 1.65%; for `COc1cc(OC)cc(-n2ccnc2-c2cc3n(n2)CCNC3)c1`: 19.3%.
Consider `CN(C(=O)C1CCOCC1)[C@@H]1CCC[C@@H](N2CCOCC2)[C@@H]1O`, for which the cytotoxicity at 70.5 h was -5.89%.
The same measure for `Cc1cc(CN2CCc3nn(C)c(=O)cc3C2)no1`: -2.94%; for `Cc1noc(C2CN(S(C)(=O)=O)Cc3ccnn3C2)n1` (centres undefined): -7.77%.
As to `CC(C)N(C(=O)c1ccnc(OCC(F)(F)F)c1)c1cccnc1`, the cytotoxicity at 70.5 h is -12.7%.
The same measure for `CSc1cccc(CN(C)C(=O)CN2CCN(c3ncccn3)CC2)c1`: -8.23%; for `O=C(N1CCCO1)[C@@]12CCO[C@@H]1CCN(Cc1cccs1)C2`: 34.4%; for `O=C(c1ccc2c(c1)OCO2)N1CCCSCC1CN1CCCC1` (centres undefined): 0.782%.
In the case of `Cc1ncsc1CN1CCn2c(COc3cccnc3)cnc2C1C` (centres undefined), the cytotoxicity at 70.5 h was -2.69%.
With `O=C(COc1cccc(Br)c1)N1CCN(c2nccs2)CC1`, the cytotoxicity at 70.5 h came out at 14.3%.
For `CN(C)CC(=O)N1CCC2(CC1)CN(Cc1cccnc1)C(=O)CO2` the value was 17.2%; for `Cc1ccc(C)c(CSc2nnc([C@@H](N)C(C)C)o2)c1`, -0.583%.
For `Cc1c(Cl)cccc1S(=O)(=O)NCc1cnc(N(C)C)n1C` the value was -8.26%; for `CC(C)N1CCN(C(=O)Cc2csc(-c3ccco3)n2)CC1`, -0.696%.
As for `COc1cc(C)c(C(C)NC(=O)Nc2nnc(C)s2)cc1OC` (centres undefined), the cytotoxicity at 70.5 h was -11.5%.
Take `CN(Cc1cccnc1)[C@@H]1CN(Cc2ccccn2)[C@@H]2CCCO[C@H]12`: the cytotoxicity at 70.5 h is -2.2%.
In the case of `Cn1nc(C(=O)N2CCCC(n3cncn3)C2)ccc1=O` (centres undefined), the cytotoxicity at 70.5 h was -7.35%.
Take `c1ccc(-c2nc(CN3CCCCC3Cn3cncn3)co2)cc1` (centres undefined): the cytotoxicity at 70.5 h is -0.916%.
With `O=C(Nc1ncnc2c1CCC2)c1cccc(F)c1`, the cytotoxicity at 70.5 h turned out to be 11.5%.
The same measure for `Oc1cccc(CN2CCN(C3CCc4ccccc4C3)CC2)c1` (centres undefined): 19.8%.
For `CCc1ccccc1Nc1noc2c1CN(C(=O)CNC(C)=O)CC2` the value was 6.37%.
`CC[C@@H]1N(Cc2ccc(F)cc2)CCC[C@]12CCC(=O)N2CCOC`: the cytotoxicity at 70.5 h amounted to 10.3%.
The same measure for `CCS(=O)(=O)c1ncc(CN2CCOCC2)n1CCCc1ccccc1`: 19.9%; for `Cc1cccc(CN2CCCC3(Cc4ccccc4CNC3=O)C2)n1` (centres undefined): -5.77%; for `c1cn2c(n1)CN(C1CCOCC1)CC(CN1CCCC1)C2` (centres undefined): -2.92%.
In the case of `COC1CN(C(=O)NCC(N)=O)CCC(=O)N(C)c2ccccc21` (centres undefined), the cytotoxicity at 70.5 h was -7.69%.
For `CCCN1CCN(C(=O)Cn2nc(C(F)(F)F)c(Br)c2C2CC2)CC1` the value was -6.28%; for `CCn1ccnc1CN1CCCN(C(=O)Cc2ccc(C)s2)CC1`, 26.4%; for `Cc1cc(NC(=O)NC(C)CN2CCN(c3ccccc3)CC2)on1` (centres undefined), -5.02%.
The same measure for `CCn1ccnc1C1CCN(Cc2c(F)cccc2F)CC1`: 3.09%.
As for `COc1c(C2CCCN2C(=O)c2cccc(C(N)=O)c2)c(C)nn1C` (centres undefined), the cytotoxicity at 70.5 h was 18.9%.
For `CCc1ccc(NC(=O)N2C[C@H]3CC[C@@]4(N=C(C)N(C)C4=O)[C@H]3C2)cc1` the value was 44.3%; for `CCS(=O)(=O)N1CCCCC1c1nc(C)no1` (centres undefined), -5.51%; for `CCNc1ncc(C(=O)N[C@@H](C)[C@H](O)c2ccccc2)cn1`, -2.67%.
The same measure for `Cc1ncccc1CNCC1CCc2nnc(C(C)C)n2C1` (centres undefined): -7.03%; for `CN(C)S(=O)(=O)N1CCCC(c2cccc(Cc3ccc(Cl)cc3)n2)C1` (centres undefined): 17.5%.
In the case of `CC(C)(CNC(=O)C1(c2ccccc2)CCOCC1)C(=O)O`, the cytotoxicity at 70.5 h was -1.55%.
As to `CN(CCCc1cc(-c2cccc(F)c2)n[nH]1)C(=O)CCn1cncn1`, the cytotoxicity at 70.5 h was -13.6%.
The same measure for `Cn1cc(-c2cccc(CNC(=O)N3CCC[C@@H]3CO)c2)cn1`: -4.94%.
For the compound `CC(C)[C@H](C)NC1CCN(c2ccc(-c3cscn3)cc2)CC1`, the cytotoxicity at 70.5 h is -14.3%.
The same measure for `Cc1c(C(=O)N2CCC(C(=O)c3nc4ccccc4s3)CC2)cnn1C`: -0.714%; for `COc1ccccc1C1CC(=O)Nc2c1c(=O)[nH]n2C1CCCC1` (centres undefined): -11.5%; for `COc1ccc(C(=O)NC2CC2)c(OC2CCN(CC3CC3)CC2)c1`: -2.04%.
As for `Cc1cnc(CCNc2cccc(CC3CCCNC3)n2)s1` (centres undefined), the cytotoxicity at 70.5 h came to 0.312%.
For `Cn1cc(N2CCN(c3ccc(C#N)cc3F)CC2=O)cn1` the value was -3.17%; for `Cc1c(-c2c(-c3ccccc3)ncn2[C@@H](C(=O)O)[C@H](C)O)cnn1C`, 3.82%; for `CCn1nc2c(cc1=O)CN(Cc1nc3ccccc3o1)CC2`, -9.68%.
For `COCC1CN(C(=O)c2cccn2C)Cc2cnn(C)c21` (centres undefined) the value was -0.85%; for `CCCS(=O)(=O)N(C)C(=O)CCc1ccccc1`, -8.46%; for `Cc1ccccc1C(CC(=O)NCc1nnc(N)s1)c1ccccc1` (centres undefined), -3.82%.
With `CCN(CC)c1ccc(-c2nc(-c3cccc(OC)c3OC)no2)cn1`, the cytotoxicity at 70.5 h was -7.4%.
As for `CC(=O)N1[C@H](Cn2cncn2)C[C@@H]2CN(Cc3ccccn3)CC[C@@H]21`, the cytotoxicity at 70.5 h stood at 17.3%.
For `OCCN1CCC(c2cncc(-c3cccc(Cl)c3)n2)CC1` the value was -3.96%; for `Cc1ccc(C)c(OCc2cc(C(=O)N(C)Cc3nonc3C)no2)c1`, 3.12%.
With `CN(C)[C@@H]1CCN(C(=O)c2ccco2)[C@H]1Cc1cnn(C)c1`, the cytotoxicity at 70.5 h was -12.7%.
The same measure for `CCn1c(C2CCCN(Cc3ccc4ccccc4n3)C2)nn(C)c1=O` (centres undefined): -3.7%; for `CC(C)(C)OC(=O)N1CCCN1C(=O)c1cccc2cc[nH]c12`: 3.87%.
For `COc1ccccc1CN1CCCCC1c1n[nH]cc1-c1cc(C)no1` (centres undefined) the value was -6.18%.
As to `CCOc1cccc(CNC(=O)CN2CCC3(CCOC3)C2)c1` (centres undefined), the cytotoxicity at 70.5 h was -6.18%.
The same measure for `CC1CCN(S(=O)(=O)c2cccn(CC(=O)NC(C)(C)C)c2=O)CC1`: -9.49%.
Take `Cc1nc2ncccn2c1C(=O)N1CCc2[nH]cnc2C1`: the cytotoxicity at 70.5 h is -1.79%.
Take `Cc1nc(C)c(C(=O)OCCNc2ncccc2C#N)s1`: the cytotoxicity at 70.5 h is -11.1%.
For `CCO[C@@H]1CC[C@H]2[C@H]1OCCN2CCOCc1ccccc1` the value was -17.9%; for `c1ccc(OCc2ccncc2)c(CNC2CCc3ncnn3C2)c1` (centres undefined), 17.2%; for `CC(C)OCCCNC(=O)c1ccc(-c2ccco2)[nH]c1=O`, -2.82%.
As for `CN(Cc1cnccn1)C(=O)Nc1cc(F)cc(N2CCCC2)c1`, the cytotoxicity at 70.5 h is -5.64%.
For the compound `O=C(CN1CCCCCC1)NCCSc1cnn[nH]1`, the cytotoxicity at 70.5 h was found to be 0.00682%.
For `O=C(COCC1CC1)N1CCCC(n2ccnc2)C1` (centres undefined) the value was 5.1%; for `Cc1cc(C)n(C2CN(Cc3noc(C4CC4)n3)C2)n1`, 20.6%.
`COCCN(C)C[C@@H]1CN(c2cc(C)nc3ccccc23)C[C@@H]1CO`: the cytotoxicity at 70.5 h was -14.9%.
As for `Cc1ccc(-c2nn(-c3cccc(F)c3)cc2CN(C)CCO)o1`, the cytotoxicity at 70.5 h was -4.83%.
The same measure for `Cc1cc(C(=O)N2CCc3ncc(CN4CCCCC4)n3CC2)no1`: 21.9%.
Regarding `COc1ccc2c(c1)NC(=O)C2OC(=O)CC(C)(C)C` (centres undefined), the cytotoxicity at 70.5 h was -9.54%.
On to `N#CCCN(CC(=O)Nc1ccc(Br)cc1Cl)Cc1cccnc1`, for which the cytotoxicity at 70.5 h was -1.52%.
For `COc1cc(CCC(=O)NC(C)C)ccc1OCC(F)(F)F` the value was -18.5%.
For the compound `CN1CCCC1c1cc2cccnc2n1Cc1ccc(F)cc1` (centres undefined), the cytotoxicity at 70.5 h is -5.23%.
The same measure for `COC(C)c1nc(CN2CCNCC2)cs1` (centres undefined): 0.111%; for `O=C(CC1CCCC1)NCCn1ccc(-c2ccccn2)n1`: 4.96%; for `Cc1cc(C)n(CC(C)NCc2nncn2C2CCCCC2)n1` (centres undefined): -7.66%.
The same measure for `CN(Cc1ccccc1)CC1(O)CCCN(CCC2CCCCC2)C1=O` (centres undefined): 29.6%.
The same measure for `CC(=O)N1CCN(Cc2cccs2)CC2(CC(=O)N(C)C2)C1` (centres undefined): -9.26%.
For the compound `Cc1ccc(OC2(C(=O)O)CCN(C/C=C/c3ccco3)CC2)cn1`, the cytotoxicity at 70.5 h was -5.05%.
The same measure for `CS(=O)(=O)N1CCC(C(=O)N2CCC(Cn3cccn3)CC2)CC1`: -12.3%.
The same measure for `CSC1(CNC(=O)NCc2sccc2C)CCOCC1`: 2.45%; for `Oc1ccc(C2Nc3ccccc3C3=NCCCN32)cc1` (centres undefined): -2.33%; for `O=C(Cn1cccn1)NCC1CCN(Cc2cc3ccccc3[nH]2)C1` (centres undefined): -14.4%.
In the case of `CCN(C(=O)c1ccc2nnc(C3CCN(C)C3)n2c1)C(C)C` (centres undefined), the cytotoxicity at 70.5 h is -11.3%.
As for `CCc1nc(CN(C(C)=O)C2CCN(Cc3ccccc3F)C2)no1` (centres undefined), the cytotoxicity at 70.5 h is -7.96%.
Turning to `COCCN1CCN(CC(=O)N(C)Cc2ccc(C)o2)CC1C` (centres undefined), the cytotoxicity at 70.5 h was -12.6%.
Regarding `CCCOc1ccc(C(=O)Oc2cc(=O)n3cccc(C)c3n2)cc1`, the cytotoxicity at 70.5 h is -0.525%.
With `CCCc1nn(Cc2csc(C(C)C)n2)c(=O)o1`, the cytotoxicity at 70.5 h was -7.07%.
For `Cc1csc(CN2CCC3(CC2)COC(COCC2CC2)C3)n1` (centres undefined) the value was -0.893%; for `CS(=O)(=O)Cc1ccc(CNc2ncc(C#N)cc2Cl)cc1`, 1.58%.
